PMC10818416, “Design, Synthesis, and Evaluation of New Hybrid Derivatives of 5,6-Dihydro-4H-pyrrolo[3,2,1-ij]quinolin-2(1H)-one as Potential Dual Inhibitors of Blood Coagulation Factors Xa and XIa” (Molecules, 2024)
Like-named read-outs stand apart in the source and are kept apart here.

Legend:
Experiment in all cases: chromogenic substrate hydrolysis, […] nm
Assay type in all cases: biochemical
factor Xa (FXa) [1] = target: T1, factor Xa (FXa) (Homo sapiens, UniProt P00742)
T1 construct: gene F10

factor XIa (FXIa) [2] = target: T2, factor XIa (FXIa) (Homo sapiens, UniProt P03951)
T2 construct: gene F11

factor Xa (FXa) [3] = target: T1, factor Xa (FXa); conditions: […] enzyme, […] S2765, pH […], up to […] DMSO
factor XIa (FXIa) [4] = target: T2, factor XIa (FXIa); conditions: […] enzyme, […] S2366, pH […], up to […] DMSO
thrombin = target: T3, thrombin (Homo sapiens, UniProt P00734); conditions: […] enzyme, […] Tos-Gly-Pro-Arg-pNA, pH […], up to […] DMSO
T3 construct: gene F2

T1 sequence (P00742 41-179): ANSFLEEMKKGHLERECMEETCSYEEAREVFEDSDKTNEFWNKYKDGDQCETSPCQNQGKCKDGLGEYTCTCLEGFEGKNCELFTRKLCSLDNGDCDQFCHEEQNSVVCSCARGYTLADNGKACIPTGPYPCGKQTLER
T1 sequence (P00742 235-488): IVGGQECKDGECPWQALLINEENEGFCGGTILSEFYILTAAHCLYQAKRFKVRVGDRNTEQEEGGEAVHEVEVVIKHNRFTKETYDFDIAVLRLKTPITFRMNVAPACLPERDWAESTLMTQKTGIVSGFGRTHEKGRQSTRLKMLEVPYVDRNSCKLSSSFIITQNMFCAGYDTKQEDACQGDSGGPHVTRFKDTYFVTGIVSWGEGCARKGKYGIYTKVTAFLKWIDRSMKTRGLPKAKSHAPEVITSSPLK
T2 sequence (P03951 19-387): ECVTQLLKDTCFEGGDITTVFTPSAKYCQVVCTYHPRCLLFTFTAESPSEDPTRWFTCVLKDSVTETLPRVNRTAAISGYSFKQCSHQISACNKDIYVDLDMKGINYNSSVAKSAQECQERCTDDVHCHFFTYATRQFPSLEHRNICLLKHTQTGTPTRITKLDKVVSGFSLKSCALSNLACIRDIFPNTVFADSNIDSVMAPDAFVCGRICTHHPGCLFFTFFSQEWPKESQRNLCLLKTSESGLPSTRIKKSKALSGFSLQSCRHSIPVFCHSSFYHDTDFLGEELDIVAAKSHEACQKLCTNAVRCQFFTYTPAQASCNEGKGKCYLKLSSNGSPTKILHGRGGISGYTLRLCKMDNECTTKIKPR
T2 sequence (P03951 388-625): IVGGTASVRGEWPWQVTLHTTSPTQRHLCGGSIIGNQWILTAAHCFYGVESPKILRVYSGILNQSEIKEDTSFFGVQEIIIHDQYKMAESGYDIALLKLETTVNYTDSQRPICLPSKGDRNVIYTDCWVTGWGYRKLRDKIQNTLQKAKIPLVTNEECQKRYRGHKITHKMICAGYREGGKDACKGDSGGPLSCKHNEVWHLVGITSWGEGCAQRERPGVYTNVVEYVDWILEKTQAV

| Structure (SMILES) | IC50 (factor Xa (FXa) [1]) [µM] | IC50 (factor XIa (FXIa) [2]) [µM] | further results |
| --- | --- | --- | --- |
| COC(=O)/C=C1\SC(N/N=C2\C(=O)N3c4c2cc(OC)cc4C(C)CC3(C)C)=NC1=O (stereo not shown) [3b, Methyl (Z)-2-(2-(2-((Z)-8-methoxy-4,4,6-trimethyl-2-oxo-5,6-dihydro-4H-pyrrolo[3,2,1-ij]quinolin-1(2H)-ylidene)hydrazineyl)-4-oxothiazol-5(4H)-ylidene)acetate] | 5.76 ± 1.08 | 8.1 ± 0.2 | – |
| COC(=O)/C=C1\SC(N/N=C2\C(=O)N3c4c2cc(Cl)cc4C(C)(c2ccc(Cl)cc2)CC3(C)C)=NC1=O (stereo not shown) [3k, Methyl (Z)-2-(2-(2-((Z)-8-chloro-6-(4-chlorophenyl)-4,4,6-trimethyl-2-oxo-5,6-dihydro-4H-pyrrolo[3,2,1-ij]quinolin-1(2H)-ylidene)hydrazineyl)-4-oxothiazol-5(4H)-ylidene)acetate] | 1.17 ± 0.26 | 4.59 ± 0.54 | – |
| COC(=O)/C=C1\SC(N/N=C2\C(=O)N3c4c2cccc4C(C)(c2ccccc2)CC3(C)C)=NC1=O (stereo not shown) [3n, Methyl (Z)-2-(4-oxo-2-(2-((Z)-4,4,6-trimethyl-2-oxo-6-phenyl-5,6-dihydro-4H-pyrrolo[3,2,1-ij]quinolin-1(2H)-ylidene)hydrazineyl)thiazol-5(4H)-ylidene)acetate] | 1.86 ± 0.07 | 11.5 ± 0.98 | – |
| COC(=O)/C=C1\SC(N/N=C2\C(=O)N3c4c2cc(Br)cc4C(C)(c2ccccc2)CC3(C)C)=NC1=O (stereo not shown) [3p, Methyl (Z)-2-(2-(2-((Z)-8-bromo-4,4,6-trimethyl-2-oxo-6-phenyl-5,6-dihydro-4H-pyrrolo[3,2,1-ij]quinolin-1(2H)-ylidene)hydrazineyl)-4-oxothiazol-5(4H)-ylidene)acetate] | 1.83 ± 0.05 | 3.87 ± 0.33 | – |
| COC(=O)/C=C1\SC(N/N=C2\C(=O)N3c4c2cccc4C(C)(c2ccc(Cl)cc2)CC3(C)C)=NC1=O (stereo not shown) [3i, Methyl (Z)-2-(2-(2-((Z)-6-(4-chlorophenyl)-4,4,6-trimethyl-2-oxo-5,6-dihydro-4H-pyrrolo[3,2,1-ij]quinolin-1(2H)-ylidene)hydrazineyl)-4-oxothiazol-5(4H)-ylidene)acetate] | – | – | Percent Inhibition at 30 μM / Xa (factor Xa (FXa) [3]): 87% |
| COC(=O)/C=C1\SC(N/N=C2\C(=O)N3c4c2cc(Cl)cc4C(C)(c2ccccc2)CC3(C)C)=NC1=O (stereo not shown) [3o, Methyl (Z)-2-(2-(2-((Z)-8-chloro-4,4,6-trimethyl-2-oxo-6-phenyl-5,6-dihydro-4H-pyrrolo[3,2,1-ij]quinolin-1(2H)-ylidene)hydrazineyl)-4-oxothiazol-5(4H)-ylidene)acetate] | 1.34 ± 0.16 | 7.21 ± 0.22 | – |
| COC(=O)C=C1SC(NN=C2C(=O)N3c4c2cc(C)cc4C(C)(c2ccc(Cl)cc2)CC3(C)C)=NC1=O (mixture of isomers) [3j, Methyl 2-(2-(2-(6-(4-chlorophenyl)-4,4,6,8-tetramethyl-2-oxo-5,6-dihydro-4H-pyrrolo[3,2,1-ij]quinolin-1(2H)-ylidene)hydrazineyl)-4-oxothiazol-5(4H)-ylidene)acetate] | – | – | Percent Inhibition at 30 μM / XIa (factor XIa (FXIa) [4]): 83% |
| COC(=O)/C=C1\SC(N/N=C2\C(=O)N3c4c(cc(C)c(C)c42)C(C)CC3(C)C)=NC1=O (stereo not shown) [3f, Methyl (Z)-2-(4-oxo-2-(2-((Z)-4,4,6,8,9-pentamethyl-2-oxo-5,6-dihydro-4H-pyrrolo[3,2,1-ij]quinolin-1(2H)-ylidene)hydrazineyl)thiazol-5(4H)-ylidene)acetate] | 4.02 ± 0.6 | 7.97 ± 0.63 | – |
| COC(=O)/C=C1\SC(N/N=C2\C(=O)N3c4c2cc(Br)cc4C(C)(c2ccc(Cl)cc2)CC3(C)C)=NC1=O (stereo not shown) [3l, Methyl (Z)-2-(2-(2-((Z)-8-bromo-6-(4-chlorophenyl)-4,4,6-trimethyl-2-oxo-5,6-dihydro-4H-pyrrolo[3,2,1-ij]quinolin-1(2H)-ylidene)hydrazineyl)-4-oxothiazol-5(4H)-ylidene)acetate] | 1.74 ± 0.21 | 3.61 ± 1.7 | – |
| COC(=O)/C=C1\SC(N/N=C2\C(=O)N3c4c2cc(Br)cc4C(C)CC3(C)C)=NC1=O (stereo not shown) [3d, Methyl (Z)-2-(2-(2-((Z)-8-bromo-4,4,6-trimethyl-2-oxo-5,6-dihydro-4H-pyrrolo[3,2,1-ij]quinolin-1(2H)-ylidene)hydrazineyl)-4-oxothiazol-5(4H)-ylidene)acetate] | – | – | Percent Inhibition at 30 μM / XIa (factor XIa (FXIa) [4]): 96% |
| COC(=O)/C=C1\SC(N/N=C2\C(=O)N3c4c2cc(Cl)cc4C(C)CC3(C)C)=NC1=O (stereo not shown) [3c, Methyl (Z)-2-(2-(2-((Z)-8-chloro-4,4,6-trimethyl-2-oxo-5,6-dihydro-4H-pyrrolo[3,2,1-ij]quinolin-1(2H)-ylidene)hydrazineyl)-4-oxothiazol-5(4H)-ylidene)acetate] | 2.84 ± 0.04 | 12.2 ± 0.2 | – |
| COC(=O)C=C1SC(NN=C2C(=O)N3c4c2cc(I)cc4C(C)CC3(C)C)=NC1=O (mixture of isomers) [3e, Methyl 2-(2-(2-(8-iodo-4,4,6-trimethyl-2-oxo-5,6-dihydro-4H-pyrrolo[3,2,1-ij]quinolin-1(2H)-ylidene)hydrazineyl)-4-oxothiazol-5(4H)-ylidene)acetate] | – | – | IC50 (factor Xa (FXa) [1]; […] enzyme, […] S2765, pH […], up to […] DMSO): 4.23 ± 0.31 µM; IC50 (factor XIa (FXIa) [2]; […] enzyme, […] S2366, pH […], up to […] DMSO): 8.03 ± 0.68 µM; Percent Inhibition of Thrombin at 30 μM (thrombin): 96% |
